Experimental findings from patent US11691989B2, “Macrocyclic indoles as Mcl-1 inhibitors” (ASCENTAGE PHARMA (SUZHOU) CO., LTD., priority 2018, dated 2023) are described below.

Data set [1] concerns the target Mcl-1 protein (residues 171-323) (Homo sapiens (Human), UniProt Q07820). Put plainly: Inhibition of Mcl-1 by fluorescence polarization (FP) competitive binding assay with FAM-Bid tracer. The note with it: 2 nM FAM-Bid, 20 nM Mcl-1, 30 min, read-out: Mc1-1 (FP). On the procedure: Inhibition of Mcl-1 by fluorescence polarization (FP) assay.
The method used a fluorescein labelled peptide (FAM-Bid) which binds to the Mcl-1 protein leading to an increased anisotropy measured in milli-polarization (mP) values using a plate reader.
A 10-points serial dilution of each compound was prepared in DMSO and 5 μL solution was transferred into flat bottomed, 96-well back plate (final DMSO concentration 5%). 120 μL of Buffer (PBS, 0.01% BGG (Sigma Cat. #SRE0011), 0.01% Triton X-100), containing the Fluorescein labelled peptide (Final concentration 2 nM) and Mcl-1 protein (final concentration 20 nM) was then added. […] 10-points dose response curves were plotted with GraphPad software using Sigmoidal Dose-Response Model and the IC50 values were determined by nonlinear regression fitting of the competition curves.

The next data set concerns OPM-2 cells. Put plainly: Cell viability assay (OPM-2 cells), CCK-8. The format is cell-based. The following applies: 5% FBS. As for the experimental part: Cell Viability Assay (OPM-2 cells)
OPM-2 cells were obtained from Deutsche Sammlung von Mikroorganismen and Zellkulturen GmbH (DSMZ). Cells were maintained in the recommended culture medium with 10% FBS at 37° C. and an atmosphere of 5% CO2.
The effect of representative Compounds of the Disclosure on cell viability was determined using Cell Counting Kit-8 (CCK-8) assay (Shanghai Life iLab Bio Technology) according to the manufacturer's instructions. Each tested compound was serially diluted in culture medium, 100 μL of the compound dilution was added into 96-well plates. 100 μL of an OPM-2 cell suspension (20000 cells/well) in culture medium were seeded into the corresponding well of the plate and the cells were incubated at 37° C. in an atmosphere of 5% CO2 for 24 hours. In the next day, 20 μL of CCK-8 solution was added to each well of the plate and incubated for 4 hours.
The plates were read at 450 nm on the microplate spectrophotometer (SpectraMax plus 384, Molecular devices). The readings were normalized to the vehicle cells, and the IC50 was calculated by nonlinear regression analysis using GraphPad Prism 6 software.

In the next data set the test system is NCI-H929 cells. Put plainly: Cell viability assay (NCI-H929 cells), CCK-8. The following applies: 5% FBS. The data set is classed as cell-based. As for the experimental part: Cell Viability Assay (NCI-H929 cells)
NCI-H929 cells were obtained from American Type Culture Collection (ATCC). Cells were maintained in the recommended culture medium (RPMI 1640) with 10% FBS and 0.05 mM BME at 37° C. and an atmosphere of 5% CO2.
The effect of Compounds on cell viability was determined using Cell Counting Kit-8 (CCK-8) assay according to the manufacturer's instructions. 95 μL of NCI-H929 cell suspension (20000 cells/well) in culture medium were seeded into 96-well plates and cultured 4 hrs. Each tested compound was serially diluted in DMSO, then 5 μL of the compound or DMSO was diluted in 95 μL medium once more. At last, 5 μL of the compound dilution was added to the corresponding well of the cell plate. After the addition of the tested compound, the cells were incubated at 37° C. in an atmosphere of 5% CO2 for 24 hrs. At the end, 10 μL of CCK-8 solution was added to each well of the plate and incubated for 1-4 hours. The plates were read at 450 nm on the microplate reader (BioTek Synergy 1MF). The readings were normalized to the vehicle cells, and the IC50 was calculated by nonlinear regression analysis using GraphPad Prism 6 software.

Data set [2] is described as follows: Microsome clearance assay, mouse. The data set is classed as in vitro ADME. The following applies: 0.5 mg/ml protein, 1 mM NADPH, 60 minutes; for microsomal CLint at 5 μM: male, CD-1, mouse, pooled liver microsomes, pH 7.4, mouse liver microsomes, read-out: Mouse Liver Microsome Clint (μL/min/mg protein). As for the experimental part:
(§1) Representative Compounds of the Disclosure were tested in a microsome clearance assay. Pooled liver microsomes (20 mg/ml) from human, male Wister rat, and male CD-1 mouse were obtained from BD Bioscience (Franklin Lakes, N.J. USA). Incubation reaction mixtures contained a final concentration of 0.1M sodium phosphate buffer (pH 7.4), 0.5 mg/ml microsomal protein, 5 μM of test sample and 1 mM NADPH in a total volume of 400 μl. The incubations were done for 60 minutes and 300 μl of the mixtures was transferred to 150 μl of ice cold methanol to terminate reactions. After vortexes for 3 minutes and centrifuged at 4000 rpm at 4° C. for 10 minutes, the clear supernatant was used directly for analysis. The samples were analyzed by Applied Biosystems API 3200 Q TRAP LC/MS/MS system using electrospray ionization mode.
On the technique in general: Liver microsomes are vesicles of endoplasmic reticulum, rich in cytochrome P450 enzymes.

Data set [3] in a line: Microsome clearance assay, rat. The format is in vitro ADME. The following applies: 0.5 mg/ml protein, 1 mM NADPH, 60 minutes; for microsomal CLint at 5 μM: male, Wister, rat, pooled liver microsomes, pH 7.4, rat liver microsomes, read-out: Rat Liver Microsome Clint (μL/min/mg protein). On the procedure:
as §1

Data set [4] is described as follows: Microsome clearance assay, human. The format is in vitro ADME. The note with it: 0.5 mg/ml protein, 1 mM NADPH, 60 minutes; for microsomal CLint at 5 μM: human, pooled liver microsomes, pH 7.4, human liver microsomes, read-out: Human Liver Microsome Clint (μL/min/mg protein). On the procedure: as §1

A value given as a limit tells only on which side of the number the result lay.

Mcl-1 protein (residues 171-323), sequence (Q07820 171-323): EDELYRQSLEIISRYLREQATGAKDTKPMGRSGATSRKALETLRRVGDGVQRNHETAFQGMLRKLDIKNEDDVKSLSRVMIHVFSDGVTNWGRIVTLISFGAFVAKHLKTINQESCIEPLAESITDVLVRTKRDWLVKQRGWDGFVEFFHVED

As for `Cc1c(C(=O)O)n2c3ccc(Cl)c(c13)-c1c(nn(C)c1C)CN(S(C)(=O)=O)Cc1cc(n(C)n1)CSc1cc(c3ccc(F)cc3c1)OCCC2` (atropisomer, axis not shown) [Cpd. No. 33, (R)-(Z)-1^5-chloro-9^6-fluoro-1^3,2^1,2^5, 6^1-tetramethyl-4-(methylsulfonyl)-1^1H,2^1H, 6′H-10-oxa-8-thia-4-aza-1(4,1)-indola-2(4,3),6(3,5)-dipyrazola-9(3,1)-naphthalenacyclotridecaphane-1^2-carboxylic acid], the IC50 in data set [1] was determined as 5 nM; with OPM-2 cells (24 hours), 190 nM; in the data set with NCI-H929 cells (24 hrs) it was 107 nM. In addition, in data set [2] (mouse liver microsomes, 5 μM), the “Mouse Liver Microsome Clint (μL/min/mg protein)” value is 16.0 μL/min/mg protein. Moreover, the “Rat Liver Microsome Clint (μL/min/mg protein)” value in data set [3] (rat liver microsomes, 5 μM) is reported as 8.6 μL/min/mg protein. In data set [4] (human liver microsomes, 5 μM), the “Human Liver Microsome Clint (μL/min/mg protein)” value was less than 2.8 μL/min/mg protein.

For `Cc1c(C(=O)O)n2c3ccc(Cl)c(c13)-c1c(nn3c1COCC3)CSCc1cc(n(C)n1)CSc1cc(c3ccccc3c1)OCCC2` [Cpd. No. 1, (Z)-1^5-chloro-1^3,6^1-dimethyl-2^6,2^7-dihydro-1^1H,2^4H,6^1H-10-oxa-4,8-dithia-2(3,2)-pyrazolo[5,1-c][1,4]oxazina-1(4,1)-indola-6(3,5)-pyrazola-9(3,1)-naphthalenacyclotridecaphane-1^2-carboxylic acid], the IC50 was found to be 7 nM in data set [1]; 1540 nM in the data set on OPM-2 cells (Homo sapiens, OPM-2, 24 h); 165 nM in the data set on NCI-H929 cells (Homo sapiens, NCI-H929, 24 h). The values for the microsomal CLint at 5 μM in data set [2], in data set [3] and in data set [4] were 49 µL/min/mg, 34.4 µL/min/mg and 35.2 µL/min/mg, respectively.

With `CCc1c(C(=O)O)n2c3ccc(Cl)c(c13)-c1c(nn(C)c1C)CSCc1cc(n(C)n1)CSc1cc(c3ccccc3c1)OCCC2` [Cpd. No. 8, (Z)-1^5-chloro-1^3-ethyl-2^1,2^5,6^1-trimethyl-1^1H,2^1H,6^111-10-oxa-4,8-dithia-1(4,1)-indola-2(4,3),6(3,5)-dipyrazola-9(3,1)-naphthalenacyclotridecaphane-1^2-carboxylic acid], the IC50 in data set [1] is 21 nM; in the data set with OPM-2 cells (Homo sapiens, OPM-2, 24 h) it was 268 nM; with NCI-H929 cells (Homo sapiens, NCI-H929, 24 h), 70 nM. Moreover, the microsomal CLint at 5 μM stood at 325 µL/min/mg in data set [2], 299 µL/min/mg in data set [3] and 86.8 µL/min/mg in data set [4].

For `CC(=O)NCc1c(C(=O)O)n2c3ccc(Cl)c(c13)-c1c(nn(C)c1C)CSCc1cc(n(C)n1)CSc1cc(c3ccccc3c1)OCCC2` [Cpd. No. 12, (Z)-1^3-(acetamidomethyl)-1^5-chloro-2^1,2^5,6^1-trimethyl-1^1H,2^1H,6^1E-10-oxa-4,8-dithia-1(4,1)-indola-2(4,3),6(3,5)-dipyrazola-9(3,1)-naphthalenacyclotridecaphane-1^2-carboxylic acid], the IC50 in data set [1] is 18 nM; in the data set with OPM-2 cells (Homo sapiens, OPM-2, 24 h), 9860 nM; in the data set with NCI-H929 cells (Homo sapiens, NCI-H929, 24 h), 273 nM. In addition, the microsomal CLint at 5 μM in data set [2] came out at 13.8 µL/min/mg; in data set [3], 30.6 µL/min/mg; in data set [4] it was 3.6 µL/min/mg.

In the case of `Cc1ccc2c3c(C)c(C(=O)O)n2CCCOc2cc(cc4cc(F)ccc24)SCc2cc(nn2C)CSCc2nn(C)c(C)c2-c13` [Cpd. No. 22, (Z)-9^6-fluoro-1^3, 1^5,2^1,2^5,6^1-pentamethyl-1^1H,2^1H,6^1H-10-oxa-4,8-dithia-1(4,1)-indola-2(4,3), 6(3,5)-dipyrazola-9(3,1)-naphthalenacyclotridecaphane-1^2-carboxylic acid], the IC50 in data set [1] was 15 nM; in the data set on OPM-2 cells (Homo sapiens, OPM-2, 24 h) it was 73 nM; in the data set on NCI-H929 cells (Homo sapiens, NCI-H929, 24 h), 61 nM. Also, the microsomal CLint at 5 μM in data set [2] was found to be 32 µL/min/mg; in data set [3] it was 30.8 µL/min/mg; in data set [4] it was 11.8 µL/min/mg.

As to `Cc1c2c(nn1C)CSCc1cc(n(C)n1)CSc1cc(c3ccc(F)cc3c1)OCCCn1c(C(=O)O)c(CN(C)S(=O)(=O)C(F)(F)F)c3c-2c(Cl)ccc31` [Cpd. No. 23, (Z)-1^5-chloro-9^6-fluoro-2^1,2^5,6^1-trimethyl-1^3-(((1,1,1-trifluoro-N-methylmethyl)sulfonamido)methyl)-1^1H,2^1H,6^1H-10-oxa-4,8-dithia-1(4,1)-indola-2(4,3),6(3,5)-dipyrazola-9(3,1)-naphthalenacyclotridecaphane-1^2-carboxylic acid], the IC50 in data set [1] came out at 16 nM; with OPM-2 cells (Homo sapiens, OPM-2, 24 h) it was 1870 nM; in the data set on NCI-H929 cells (Homo sapiens, NCI-H929, 24 h) it was 1070 nM. The microsomal CLint at 5 μM is 52.4 µL/min/mg in data set [2], 30.4 µL/min/mg in data set [3] and 48.2 µL/min/mg in data set [4].

For `Cc1c2c(nn1C)CSCc1cc(n(C)n1)CSc1cc(c3ccc(F)cc3c1)OCCCn1c(C(=O)O)c(C(F)(F)F)c3c-2c(Cl)ccc31` [Cpd. No. 24, (Z)-1^5-chloro-9^6-fluoro-2^1,2^5,6^1-trimethyl-1^3-(trifluoromethyl)-1^1H,2^1H,6^1H-10-oxa-4,8-dithia-1(4,1)-indola-2(4,3),6(3,5)-dipyrazola-9(3,1)-naphthalenacyclotridecaphane-1^2-carboxylic acid], the IC50 was 15 nM in data set [1]; 5420 nM in the data set on OPM-2 cells (Homo sapiens, OPM-2, 24 h); 3040 nM in the data set with NCI-H929 cells (Homo sapiens, NCI-H929, 24 h). For the same compound, the values for the microsomal CLint at 5 μM in data set [2], in data set [3] and in data set [4] were 28.8 µL/min/mg, 122 µL/min/mg and 21.8 µL/min/mg, respectively.

`Cc1nn(C)c2c1-c1c(Cl)ccc3c1c(C)c(C(=O)O)n3CCCOc1cc(cc3cc(F)ccc13)SCc1cc(nn1C)CSC2` [Cpd. No. 28, (Z)-1^5-chloro-9^6-fluoro-1^3,2^1,2^3,6^1-tetramethyl-1^1H,2^1H,6^111-10-oxa-4,8-dithia-1(4,1)-indola-2(4,5),6(3,5)-dipyrazola-9(3,1)-naphthalenacyclotridecaphane-1^2-carboxylic acid]: the IC50 amounted to 14 nM in data set [1]; 66 nM in the data set on OPM-2 cells (Homo sapiens, OPM-2, 24 h); 47 nM in the data set with NCI-H929 cells (Homo sapiens, NCI-H929, 24 h). Also, the microsomal CLint at 5 μM turned out to be 116 µL/min/mg in data set [2], 38.4 µL/min/mg in data set [3] and 42.8 µL/min/mg in data set [4].

On to `Cc1c(C(=O)O)n2c3ccc(Cl)c(c13)-c1c(nn3c1COCC3)CN(S(=O)(=O)c1ccccc1)Cc1cc(n(C)n1)CSc1cc(c3ccc(F)cc3c1)OCCC2` [Cpd. No. 29, (Z)-1^5-chloro-9^6-fluoro-1^3, 6^1-di methyl-4-(phenylsulfonyl)-26,27-dihydro-1^1H,2^4H,6^1H-10-oxa-8-thia-4-aza-2(3,2)-pyrazolo[5,1-c][1,4]oxazina-1(4,1)-indola-6(3,5)-pyrazola-9(3,1)-naphthalenacyclotridecaphane-1^2-carboxylic acid], for which the IC50 in data set [1] came to 35 nM; with OPM-2 cells (Homo sapiens, OPM-2, 24 h) it was 1900 nM; with NCI-H929 cells (Homo sapiens, NCI-H929, 24 h), 621 nM. For the same compound, the microsomal CLint at 5 μM in data set [2] came to 54.6 µL/min/mg; in data set [3], 42 µL/min/mg; in data set [4] it was 21.4 µL/min/mg.
